Consider 23 molecules from patent US9624208B2, “Benzoxazolinone compounds with selective activity in voltage-gated sodium channels” (Merck Sharp & Dohme Corp., priority 2012, dated 2017).

For experiment [1], the target named is T1, human Nav1.7 (Homo sapiens, UniProt Q15858).
T1 construct: expressed in transfected cells
The experiment can be described thus: PatchXpress sodium current measurement, inactivated state block, Nav1.7. In kind it is cell-based. The conditions noted are these: channels stably expressed in HEK 293 cells, double-pulse protocol, 22° C., read-out: potency for the Nav 1.7 sodium ion channel (1.7=). A digest of the protocol: (§1)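 HEK293 cells stably expressing channel; automated patch clamp at 22 °C, double-pulse protocol: hold 20 mV below V½ inactivation, 8000 ms prepulse 7 mV above V½, 2 ms step to −120 mV, 20 ms test pulse to −20 mV. CsF-based internal (pH 7.3), NMDG/40 mM NaCl external (pH 7.5). Rundown-corrected % inhibition (≥2 concentrations) fitted to Hill equation for IC50.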

Experiment [2] concerns the target T2, human Nav1.5 (Homo sapiens, UniProt Q14524).
T2 construct: expressed in transfected cells
The experiment can be described thus: PatchXpress sodium current measurement, inactivated state block, Nav1.5. The conditions noted are these: determined by PatchXpress measurement, HEK 293 cells. The experiment is classed as cell-based. In a few lines: as §1

T2 sequence (Q14524 whole entry): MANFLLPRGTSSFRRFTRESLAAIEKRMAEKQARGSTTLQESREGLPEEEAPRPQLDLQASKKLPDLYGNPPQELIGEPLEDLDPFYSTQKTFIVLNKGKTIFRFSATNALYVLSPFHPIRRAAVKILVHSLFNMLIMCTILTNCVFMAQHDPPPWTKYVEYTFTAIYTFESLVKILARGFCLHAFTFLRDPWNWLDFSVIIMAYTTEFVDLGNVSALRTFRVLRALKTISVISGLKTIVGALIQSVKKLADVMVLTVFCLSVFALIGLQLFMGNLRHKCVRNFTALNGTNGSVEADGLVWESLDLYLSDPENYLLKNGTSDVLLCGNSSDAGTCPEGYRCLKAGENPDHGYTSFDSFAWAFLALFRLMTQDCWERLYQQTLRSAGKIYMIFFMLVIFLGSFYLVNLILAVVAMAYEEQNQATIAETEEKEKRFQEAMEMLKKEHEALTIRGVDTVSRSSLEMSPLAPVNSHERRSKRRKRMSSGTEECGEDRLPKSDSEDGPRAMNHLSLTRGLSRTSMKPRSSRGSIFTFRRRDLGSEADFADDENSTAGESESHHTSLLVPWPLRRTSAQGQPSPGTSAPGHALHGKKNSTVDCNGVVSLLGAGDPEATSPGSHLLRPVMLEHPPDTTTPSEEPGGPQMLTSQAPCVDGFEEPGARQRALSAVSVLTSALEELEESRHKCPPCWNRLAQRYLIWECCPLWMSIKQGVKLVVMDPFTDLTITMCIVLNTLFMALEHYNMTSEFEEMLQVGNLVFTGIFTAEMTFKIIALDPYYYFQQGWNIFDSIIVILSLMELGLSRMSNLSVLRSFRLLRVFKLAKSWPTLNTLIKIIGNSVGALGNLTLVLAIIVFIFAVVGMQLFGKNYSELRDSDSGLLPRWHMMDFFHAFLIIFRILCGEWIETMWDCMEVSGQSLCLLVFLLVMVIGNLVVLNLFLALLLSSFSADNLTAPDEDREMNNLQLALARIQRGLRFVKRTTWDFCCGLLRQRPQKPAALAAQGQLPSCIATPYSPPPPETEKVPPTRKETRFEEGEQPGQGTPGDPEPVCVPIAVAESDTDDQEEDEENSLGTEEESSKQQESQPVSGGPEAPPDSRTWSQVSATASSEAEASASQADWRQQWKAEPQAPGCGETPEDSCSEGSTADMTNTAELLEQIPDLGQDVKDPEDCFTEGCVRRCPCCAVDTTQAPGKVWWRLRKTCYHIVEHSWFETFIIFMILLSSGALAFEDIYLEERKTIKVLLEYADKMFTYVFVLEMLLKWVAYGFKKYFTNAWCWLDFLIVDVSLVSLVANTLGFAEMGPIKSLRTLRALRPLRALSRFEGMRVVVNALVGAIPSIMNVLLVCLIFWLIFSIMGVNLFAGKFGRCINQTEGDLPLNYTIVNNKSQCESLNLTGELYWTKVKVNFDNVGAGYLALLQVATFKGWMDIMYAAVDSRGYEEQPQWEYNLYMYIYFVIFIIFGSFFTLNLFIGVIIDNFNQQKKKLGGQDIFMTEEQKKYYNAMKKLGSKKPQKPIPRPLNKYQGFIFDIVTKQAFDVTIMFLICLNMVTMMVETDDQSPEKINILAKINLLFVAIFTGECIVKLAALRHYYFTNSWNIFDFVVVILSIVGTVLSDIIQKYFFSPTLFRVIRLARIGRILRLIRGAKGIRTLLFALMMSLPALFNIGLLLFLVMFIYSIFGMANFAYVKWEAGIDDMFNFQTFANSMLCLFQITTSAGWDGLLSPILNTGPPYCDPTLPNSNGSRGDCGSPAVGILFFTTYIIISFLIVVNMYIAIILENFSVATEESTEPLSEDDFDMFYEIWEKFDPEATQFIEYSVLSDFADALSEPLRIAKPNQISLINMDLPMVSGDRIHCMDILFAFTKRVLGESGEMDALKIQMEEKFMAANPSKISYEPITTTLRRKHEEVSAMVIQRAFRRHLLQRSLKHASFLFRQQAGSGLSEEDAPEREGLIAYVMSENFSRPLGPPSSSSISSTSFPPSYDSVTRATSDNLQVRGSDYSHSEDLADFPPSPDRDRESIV
T1 sequence (Q15858 whole entry): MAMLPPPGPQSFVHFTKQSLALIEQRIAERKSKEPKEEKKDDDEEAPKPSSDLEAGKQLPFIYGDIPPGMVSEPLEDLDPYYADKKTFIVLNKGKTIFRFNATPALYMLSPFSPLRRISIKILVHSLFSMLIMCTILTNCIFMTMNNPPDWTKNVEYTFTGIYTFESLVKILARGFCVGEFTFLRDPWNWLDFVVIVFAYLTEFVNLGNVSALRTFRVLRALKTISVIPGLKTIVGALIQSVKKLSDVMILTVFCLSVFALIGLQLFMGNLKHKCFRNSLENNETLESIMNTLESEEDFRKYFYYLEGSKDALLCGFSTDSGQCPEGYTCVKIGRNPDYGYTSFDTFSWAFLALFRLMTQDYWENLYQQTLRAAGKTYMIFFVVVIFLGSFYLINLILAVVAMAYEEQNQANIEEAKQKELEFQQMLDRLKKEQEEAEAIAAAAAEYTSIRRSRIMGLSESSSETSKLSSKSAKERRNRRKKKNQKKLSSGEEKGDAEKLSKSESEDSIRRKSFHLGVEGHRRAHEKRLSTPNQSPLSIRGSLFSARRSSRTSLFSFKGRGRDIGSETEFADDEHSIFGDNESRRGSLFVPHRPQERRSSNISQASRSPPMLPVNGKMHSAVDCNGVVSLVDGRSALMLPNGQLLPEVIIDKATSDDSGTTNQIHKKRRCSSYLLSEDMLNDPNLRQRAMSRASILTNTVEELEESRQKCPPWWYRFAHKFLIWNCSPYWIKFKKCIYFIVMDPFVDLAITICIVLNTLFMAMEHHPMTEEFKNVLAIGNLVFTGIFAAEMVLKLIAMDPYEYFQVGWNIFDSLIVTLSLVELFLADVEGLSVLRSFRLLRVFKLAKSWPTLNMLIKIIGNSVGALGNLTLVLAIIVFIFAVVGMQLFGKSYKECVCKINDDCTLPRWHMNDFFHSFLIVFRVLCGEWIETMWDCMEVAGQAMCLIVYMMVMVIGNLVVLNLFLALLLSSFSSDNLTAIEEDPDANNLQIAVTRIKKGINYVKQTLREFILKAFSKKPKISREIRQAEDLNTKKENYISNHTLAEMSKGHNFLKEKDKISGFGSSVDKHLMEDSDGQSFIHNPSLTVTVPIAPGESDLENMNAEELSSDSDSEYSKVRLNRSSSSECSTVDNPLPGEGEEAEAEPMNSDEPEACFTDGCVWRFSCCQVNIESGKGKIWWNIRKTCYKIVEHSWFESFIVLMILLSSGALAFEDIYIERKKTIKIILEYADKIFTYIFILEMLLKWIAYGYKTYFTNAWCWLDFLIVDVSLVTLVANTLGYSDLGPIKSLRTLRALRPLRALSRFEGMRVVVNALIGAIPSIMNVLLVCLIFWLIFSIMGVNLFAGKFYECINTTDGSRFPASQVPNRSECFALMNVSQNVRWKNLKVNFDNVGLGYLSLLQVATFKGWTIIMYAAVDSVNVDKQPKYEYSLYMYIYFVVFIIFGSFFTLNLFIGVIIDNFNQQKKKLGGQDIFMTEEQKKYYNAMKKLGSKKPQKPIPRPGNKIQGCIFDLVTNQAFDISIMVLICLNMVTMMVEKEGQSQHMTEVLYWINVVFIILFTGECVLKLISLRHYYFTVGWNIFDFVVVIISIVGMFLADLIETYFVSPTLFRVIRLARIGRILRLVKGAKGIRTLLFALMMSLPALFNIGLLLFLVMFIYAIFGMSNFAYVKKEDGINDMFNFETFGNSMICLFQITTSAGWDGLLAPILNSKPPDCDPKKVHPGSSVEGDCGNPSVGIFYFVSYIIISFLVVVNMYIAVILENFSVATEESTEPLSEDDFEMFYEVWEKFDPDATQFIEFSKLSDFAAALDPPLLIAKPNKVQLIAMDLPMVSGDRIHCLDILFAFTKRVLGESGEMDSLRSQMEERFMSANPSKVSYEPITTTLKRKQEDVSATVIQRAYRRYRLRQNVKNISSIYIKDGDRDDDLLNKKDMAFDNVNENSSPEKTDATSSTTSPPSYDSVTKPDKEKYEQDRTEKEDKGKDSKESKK

As to `C[C@H](c1cccc(CN)c1)n1c(=O)oc2cc(S(=O)(=O)Nc3cccc(F)n3)c(F)cc21` [Ex19-5, 3-{(1R)-1-[3-(aminomethyl)phenyl]ethyl}-5-fluoro-N-(6-fluoropyridin-2-yl)-2-oxo-2,3-dihydro-1,3-benzoxazole-6-sulfonamide], in experiment [1], the IC50 stood at 482 nM. Also, the “ratio of Nav 1.5:Nav 1.7 potency” value in experiment [2] came to 96.

On to `C[C@H](c1cccc(CCN)c1)n1c(=O)oc2cc(S(=O)(=O)Nc3cccc(F)n3)c(F)cc21` [Ex19-11, 3-{(1R)-1-[3-(2-aminoethyl)phenyl]ethyl}-5-fluoro-N-(6-fluoropyridin-2-yl)-2-oxo-2,3-dihydro-1,3-benzoxazole-6-sulfonamide], for which the IC50 in experiment [1] worked out at 103 nM. For the same molecule, the “ratio of Nav 1.5:Nav 1.7 potency” value in experiment [2] was 244.

Turning to `Cc1c(CCN)cccc1[C@@H](C)n1c(=O)oc2cc(S(=O)(=O)Nc3cccc(F)n3)c(F)cc21` [Ex19-12], the IC50 in experiment [1] was 154 nM. The “ratio of Nav 1.5:Nav 1.7 potency” value in experiment [2] was 195.

Regarding `C[C@H](c1ccccc1C1CCCN1)n1c(=O)oc2cc(S(=O)(=O)Nc3cccc(F)n3)c(F)cc21` (stereo partly drawn) [Ex20-1, 5-fluoro-N-(6-fluoropyridin-2-yl)-2-oxo-3-{(1R)-1-[2-(pyrrolidin-2-yl)phenyl]ethyl}-2,3-dihydro-1,3-benzoxazole-6-sulfonamide], the IC50 in experiment [1] amounted to 98 nM. In experiment [2], the “ratio of Nav 1.5:Nav 1.7 potency” value was 120.

Consider `Cc1cccc([C@@H](C)n2c(=O)oc3cc(S(=O)(=O)Nc4cccc(F)n4)c(F)cc32)c1C1CCCN1` (stereo partly drawn) [Ex20-2, 5-fluoro-N-(6-fluoropyridin-2-yl)-3-{(1R)-1-[3-methyl-2-(pyrrolidin-2-yl)phenyl]ethyl}-2-oxo-2,3-dihydro-1,3-benzoxazole-6-sulfonamide], for which, in experiment [1], the IC50 was 35 nM. Besides, in experiment [2], the “ratio of Nav 1.5:Nav 1.7 potency” value is 272.

For the molecule `C[C@H](c1cccc(C2CCCN2)c1)n1c(=O)oc2cc(S(=O)(=O)Nc3cccc(F)n3)c(F)cc21` (stereo partly drawn) [Ex20-3, 5-fluoro-N-(6-fluoropyridin-2-yl)-2-oxo-3-{(1R)-1-[3-(pyrrolidin-2-yl)phenyl]ethyl}-2,3-dihydro-1,3-benzoxazole-6-sulfonamide], the IC50 in experiment [1] worked out at 243 nM. Further, in experiment [2], the “ratio of Nav 1.5:Nav 1.7 potency” value was 218.

As for `C[C@H](c1cccc(C#CC(C)(C)N)c1)n1c(=O)oc2cc(S(=O)(=O)Nc3cccc(F)n3)c(F)cc21` [Ex21-1, 3-{(1R)-1-[3-(3-amino-3-methylbut-1-yn-1-yl)phenyl]ethyl}-5-fluoro-N-(6-fluoropyridin-2-yl)-2-oxo-2,3-dihydro-1,3-benzoxazole-6-sulfonamide], the IC50 in experiment [1] turned out to be 229 nM. Moreover, the “ratio of Nav 1.5:Nav 1.7 potency” value in experiment [2] was found to be 151.

As for `CNCC#Cc1cccc([C@@H](C)n2c(=O)oc3cc(S(=O)(=O)Nc4cccc(F)n4)c(F)cc32)c1` [Ex21-2, 5-fluoro-N-(6-fluoropyridin-2-yl)-3-[(1R)-1-{3-[3-(methylamino)prop-1-yn-1-yl]phenyl}ethyl]-2-oxo-2,3-dihydro-1,3-benzoxazole-6-sulfonamide], the IC50 in experiment [1] was determined as 245 nM. The “ratio of Nav 1.5:Nav 1.7 potency” value in experiment [2] is recorded as 122.

Turning to `C[C@H](c1cccc(C#CCN(C)C)c1)n1c(=O)oc2cc(S(=O)(=O)Nc3cccc(F)n3)c(F)cc21` [Ex21-3, 3-[(1R)-1-{3-[3-(dimethylamino)prop-1-yn-1-yl]phenyl}ethyl]-5-fluoro-N-(6-fluoropyridin-2-yl)-2-oxo-2,3-dihydro-1,3-benzoxazole-6-sulfonamide], in experiment [1], the IC50 was determined as 808 nM. The “ratio of Nav 1.5:Nav 1.7 potency” value in experiment [2] was 37.

As to `C[C@H](c1cccc(C#CC2(N)CCCCC2)c1)n1c(=O)oc2cc(S(=O)(=O)Nc3cccc(F)n3)c(F)cc21` [Ex21-4, 3-[(1R)-1-{3-[(1-aminocyclohexyl)-ethynyl]phenyl}ethyl]-5-fluoro-N-(6-fluoropyridin-2-yl)-2-oxo-2,3-dihydro-1,3-benzoxazole-6-sulfonamide], in experiment [1], the IC50 amounted to 226 nM. The “ratio of Nav 1.5:Nav 1.7 potency” value in experiment [2] is reported as 45.

Take `CC(N)C#Cc1cccc([C@@H](C)n2c(=O)oc3cc(S(=O)(=O)Nc4cccc(F)n4)c(F)cc32)c1` (stereo partly drawn) [Ex21-5, 3-{(1R)-1-[3-(3-aminobut-1-yn-1-yl)phenyl]ethyl}-5-fluoro-N-(6-fluoropyridin-2-yl)-2-oxo-2,3-dihydro-1,3-benzoxazole-6-sulfonamide]: the IC50 in experiment [1] amounted to 885 nM. Besides, the “ratio of Nav 1.5:Nav 1.7 potency” value in experiment [2] was 34.

On to `C[C@H](c1cccc(C#CCNC2CCCCC2)c1)n1c(=O)oc2cc(S(=O)(=O)Nc3cccc(F)n3)c(F)cc21` [Ex21-6, 3-[(1R)-1-{3-[3-(cyclohexylamino)prop-1-yn-1-yl]phenyl}ethyl]-5-fluoro-N-(6-fluoropyridin-2-yl)-2-oxo-2,3-dihydro-1,3-benzoxazole-6-sulfonamide], for which, in experiment [1], the IC50 is 382 nM. Further, the “ratio of Nav 1.5:Nav 1.7 potency” value in experiment [2] amounted to 27.

With `C[C@H](c1cccc(C#CCN2CCCC2)c1)n1c(=O)oc2cc(S(=O)(=O)Nc3cccc(F)n3)c(F)cc21` [Ex21-7, 5-fluoro-N-(6-fluoropyridin-2-yl)-2-oxo-3-[(1R)-1-{3-[3-(pyrrolidin-1-yl)prop-1-yn-1-yl]phenyl}ethyl]-2,3-dihydro-1,3-benzoxazole-6-sulfonamide], the IC50 in experiment [1] was 337 nM. The “ratio of Nav 1.5:Nav 1.7 potency” value in experiment [2] stood at 89.

For the molecule `C[C@H](c1cccc(C#CC2CCCCN2)c1)n1c(=O)oc2cc(S(=O)(=O)Nc3cccc(F)n3)c(F)cc21` (stereo partly drawn) [Ex21-9, 5-fluoro-N-(6-fluoropyridin-2-yl)-2-oxo-3-{(1R)-1-[3-(piperidin-2-ylethynyl)phenyl]ethyl}-2,3-dihydro-1,3-benzoxazole-6-sulfonamide], the IC50 in experiment [1] turned out to be 407 nM. For the same molecule, the “ratio of Nav 1.5:Nav 1.7 potency” value in experiment [2] is on record as 74.

As to `C[C@H](c1cccc(C#CC2CCCN2)c1)n1c(=O)oc2cc(S(=O)(=O)Nc3cccc(F)n3)c(F)cc21` (stereo partly drawn) [Ex21-10, 5-fluoro-N-(6-fluoropyridin-2-yl)-2-oxo-3-{(1R)-1-[3-(pyrrolidin-2-ylethynyl)phenyl]ethyl}-2,3-dihydro-1,3-benzoxazole-6-sulfonamide], in experiment [1], the IC50 is 342 nM. In experiment [2], the “ratio of Nav 1.5:Nav 1.7 potency” value worked out at 88.

Regarding `C[C@H](c1cccc(C#CCN2CCNCC2)c1)n1c(=O)oc2cc(S(=O)(=O)Nc3cccc(F)n3)c(F)cc21` [Ex21-11, 5-fluoro-N-(6-fluoropyridin-2-yl)-2-oxo-3-[(1R)-1-{3-[3-(piperazin-1-yl)prop-1-yn-1-yl]phenyl}ethyl]-2,3-dihydro-1,3-benzoxazole-6-sulfonamide], the IC50 in experiment [1] was found to be 189 nM. Moreover, the “ratio of Nav 1.5:Nav 1.7 potency” value in experiment [2] was determined as 137.

`C[C@H](c1cccc(C#CC2(N)CC2)c1)n1c(=O)oc2cc(S(=O)(=O)Nc3cccc(F)n3)c(F)cc21` [Ex21-12, 3-[(1R)-1-{3-[(1-aminocyclopropyl)ethynyl]phenyl}ethyl]-5-fluoro-N-(6-fluoropyridin-2-yl)-2-oxo-2,3-dihydro-1,3-benzoxazole-6-sulfonamide]: the IC50 in experiment [1] was found to be 258 nM. For the same molecule, the “ratio of Nav 1.5:Nav 1.7 potency” value in experiment [2] was found to be 116.

In the case of `C[C@H](c1cccc(C#CCN2CCC2)c1)n1c(=O)oc2cc(S(=O)(=O)Nc3cccc(F)n3)c(F)cc21` [Ex21-13, 3-[(1R)-1-{3-[3-(azetidin-1-yl)prop-1-yn-1-yl]phenyl}ethyl]-5-fluoro-N-(6-fluoropyridin-2-yl)-2-oxo-2,3-dihydro-1,3-benzoxazole-6-sulfonamide], in experiment [1], the IC50 stood at 116 nM. The “ratio of Nav 1.5:Nav 1.7 potency” value in experiment [2] is listed as 258.

As to `C[C@H](c1cccc(C#CCN2CCN(C)CC2)c1)n1c(=O)oc2cc(S(=O)(=O)Nc3cccc(F)n3)c(F)cc21` [Ex21-14, 5-fluoro-N-(6-fluoropyridin-2-yl)-3-[(1R)-1-{3-[3-(4-methylpiperazin-1-yl)prop-1-yn-1-yl]phenyl}ethyl]-2-oxo-2,3-dihydro-1,3-benzoxazole-6-sulfonamide], in experiment [1], the IC50 was found to be 234 nM. Besides, the “ratio of Nav 1.5:Nav 1.7 potency” value in experiment [2] amounted to 134.

Take `CCN(CC)CC#Cc1cccc([C@@H](C)n2c(=O)oc3cc(S(=O)(=O)Nc4cccc(F)n4)c(F)cc32)c1` [Ex21-15, 3-[(1R)-1-{3-[3-(diethylamino)prop-1-yn-1-yl]phenyl}ethyl]-5-fluoro-N-(6-fluoropyridin-2-yl)-2-oxo-2,3-dihydro-1,3-benzoxazole-6-sulfonamide]: in experiment [1], the IC50 came to 516 nM. Further, in experiment [2], the “ratio of Nav 1.5:Nav 1.7 potency” value came to 58.

Take `C[C@H](c1cccc(C#C[C@@H]2CCCC[C@@H]2N)c1)n1c(=O)oc2cc(S(=O)(=O)Nc3cccc(F)n3)c(F)cc21` [Ex21-17, 3-[(1R)-1-(3-{[(1S,2S)-2-aminocyclohexyl]ethynyl}phenyl)ethyl]-5-fluoro-N-(6-fluoropyridin-2-yl)-2-oxo-2,3-dihydro-1,3-benzoxazole-6-sulfonamide]: in experiment [1], the IC50 was 68 nM. In addition, the “ratio of Nav 1.5:Nav 1.7 potency” value in experiment [2] stood at 41.

With `C[C@H](c1cccc(C#CC2CCCC2N)c1)n1c(=O)oc2cc(S(=O)(=O)Nc3cccc(F)n3)c(F)cc21` (stereo partly drawn) [Ex21-18, 3-[(1R)-1-{3-[(2-aminocyclopentyl)ethynyl]phenyl}ethyl]-5-fluoro-N-(6-fluoropyridin-2-yl)-2-oxo-2,3-dihydro-1,3-benzoxazole-6-sulfonamide], the IC50 in experiment [1] turned out to be 118 nM. In addition, in experiment [2], the “ratio of Nav 1.5:Nav 1.7 potency” value worked out at 64.

Consider `Cc1cc2c(cc1S(=O)(=O)Nc1cccc(F)n1)oc(=O)n2[C@H](C)c1cccc(C#CCN2CCC2)c1` [Ex21-20, 3-[(1R)-1-{3-[3-(azetidin-1-yl)prop-1-yn-l-yl]phenyl}ethyl]-N-(6-fluoropyridin-2-yl)-5-methyl-2-oxo-2,3-dihydro-1,3-benzoxazole-6-sulfonamide], for which the IC50 in experiment [1] turned out to be 200 nM. Moreover, in experiment [2], the “ratio of Nav 1.5:Nav 1.7 potency” value is given as 30.
